Earlier results in patent publication US12691049B2, “Process for producing hair treatment products by mixing organic C1-C6-alkoxysilanes and alkalizing agents in specific molar ratios” (Henkel AG & Co. KGaA, priority 2021, dated 2026).

Molecule	solubility in water (25° C.)	also measured
O=C([O-])C1=NN(c2ccc(S(=O)(=O)[O-])cc2)C(=O)C1N=Nc1ccc(S(=O)(=O)[O-])cc1.[Na+].[Na+].[Na+] (stereo not drawn) [Acid Yellow 23, trisodium salt of 4,5-dihydro-5-oxo-1-(4-sulfophenyl)-4-((4-sulfophenyl)azo)-1H-pyrazole-3-carboxylic acid]	–	solubility in water (in words) (at 25° C.): readily soluble in water
mixture of the sodium salts of mono and sis-sulfonic acids of 2-(2-quinolyl)-1H-indene-1,3(2H)-dione [Acid Yellow 3]	20 mg/mL	–
Nc1cc(S(=O)(=O)[O-])cc2cc(S(=O)(=O)[O-])c(N=Nc3ccccc3)c(O)c12.[Na+].[Na+] [Acid Red 33, disodium salt of 5-amino-4-hydroxy-3-(phenylazo)-naphthalene-2,7-disulfonate]	2.5 mg/mL	–
CCN(Cc1cccc(S(=O)(=O)[O-])c1)c1ccc(C(=C2C=CC(=[N+](CC)Cc3cccc(S(=O)(=O)[O-])c3)C=C2)c2ccccc2S(=O)(=O)[O-])cc1.[Na+].[Na+] [Acid Blue 9]	–	water solubility (25° C.): more than 20 wt %
O=C([O-])c1c(Cl)c(Cl)c(Cl)c(Cl)c1-c1c2cc(Br)c(=O)c(Br)c-2oc2c(Br)c([O-])c(Br)cc12.[Na+].[Na+] [Acid Red 92, disodium salt of 3,4,5,6-tetrachloro-2-(1,4,5,8-tetrabromo-6-hydroxy-3-oxanthene-9-yl) benzoic acid]	greater than 10 g/L	–
O=S(=O)([O-])c1ccc(N=Nc2c(O)ccc3ccccc23)cc1.[Na+] [Acid Orange 7, sodium salt of 4-[(2-hydroxy-1-naphthyl)azo]benzene sulphonate]	more than 7 g/L	–
